Laboratory results as given in patent US20100076003A1, “5-OXAZOLIDIN-2-ONE SUBSTITUTED 1,3,8-TRIAZASPIRO[4.5]DECAN-4-ONE DERIVATIVES USEFUL AS ORL-1 RECEPTOR MODULATORS” (priority 2008, published 2010).

Tests used:
[1] = biological target: Delta (δ) opioid receptor (Homo sapiens, UniProt P41143); assay: Filtration binding assay, delta opioid receptor, DPDPE-3H ligand
[2] = biological target: Kappa (κ) opioid receptor (Homo sapiens, UniProt P41145); assay: Filtration binding assay, kappa opioid receptor, U-69,593-3H ligand
[3] = biological target: Mu (μ) opioid receptor (Homo sapiens, UniProt P35372); assay: Filtration binding assay, mu opioid receptor, DAMGO-3H ligand
Chain of Mu (μ) opioid receptor (P35372 whole entry): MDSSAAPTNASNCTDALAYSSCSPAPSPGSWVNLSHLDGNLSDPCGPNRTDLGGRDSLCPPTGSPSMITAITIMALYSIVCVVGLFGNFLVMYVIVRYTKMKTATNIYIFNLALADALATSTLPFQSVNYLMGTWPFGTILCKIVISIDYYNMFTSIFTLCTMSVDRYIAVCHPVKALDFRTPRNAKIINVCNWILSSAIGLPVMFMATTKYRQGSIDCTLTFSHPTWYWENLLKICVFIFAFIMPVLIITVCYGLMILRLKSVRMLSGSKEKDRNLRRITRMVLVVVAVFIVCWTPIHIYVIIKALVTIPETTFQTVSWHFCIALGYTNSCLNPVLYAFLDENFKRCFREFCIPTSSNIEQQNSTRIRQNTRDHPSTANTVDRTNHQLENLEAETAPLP

Chain of Kappa (κ) opioid receptor (P41145 whole entry): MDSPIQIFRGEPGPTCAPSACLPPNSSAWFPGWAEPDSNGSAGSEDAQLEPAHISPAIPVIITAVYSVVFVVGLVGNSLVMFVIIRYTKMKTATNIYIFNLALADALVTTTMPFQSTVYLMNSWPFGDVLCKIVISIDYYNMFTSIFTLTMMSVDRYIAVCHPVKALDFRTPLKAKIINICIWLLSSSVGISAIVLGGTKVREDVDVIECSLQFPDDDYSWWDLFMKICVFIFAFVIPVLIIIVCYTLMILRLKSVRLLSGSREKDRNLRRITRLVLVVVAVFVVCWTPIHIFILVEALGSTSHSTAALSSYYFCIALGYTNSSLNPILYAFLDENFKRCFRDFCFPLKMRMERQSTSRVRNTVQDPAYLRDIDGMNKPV
Chain of Delta (δ) opioid receptor (P41143 whole entry): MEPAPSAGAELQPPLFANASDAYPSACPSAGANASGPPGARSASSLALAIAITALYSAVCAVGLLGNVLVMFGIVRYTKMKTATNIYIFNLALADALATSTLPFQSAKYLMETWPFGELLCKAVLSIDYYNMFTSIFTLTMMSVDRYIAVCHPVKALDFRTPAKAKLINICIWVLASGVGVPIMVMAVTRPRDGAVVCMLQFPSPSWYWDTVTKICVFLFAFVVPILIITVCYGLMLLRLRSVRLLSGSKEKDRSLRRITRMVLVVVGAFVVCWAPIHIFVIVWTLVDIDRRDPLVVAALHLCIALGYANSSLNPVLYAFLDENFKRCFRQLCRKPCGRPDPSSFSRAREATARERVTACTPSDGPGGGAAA

`Cc1cccc2cccc(CN3CCC4(CC3)C(=O)N(C[C@H]3CNC(=O)O3)CN4c3ccc(F)cc3)c12` [Compound 2, 1-(4-Fluoro-phenyl)-8-(8-methyl-naphthalen-1-ylmethyl)-3-(R)-(2-oxo-oxazolidin-5-ylmethyl)-1,3,8-triaza-spiro[4.5]decan-4-one] gave a Ki [1] of over 5000 nM, a Ki [2] of 640 nM and a Ki [3] of 740 nM.

With `Cc1cccc2cccc(CN3CCC4(CC3)C(=O)N(C[C@H]3CN(C)C(=O)O3)CN4c3ccc(F)cc3)c12` [Compound 4, 1-(4-Fluoro-phenyl)-8-(8-methyl-naphthalen-1-ylmethyl)-3-(S)-(3-methyl-2-oxo-oxazolidin-5-ylmethyl)-1,3,8-triaza-spiro[4.5]decan-4-one] the Ki [1] was over 5000 nM, the Ki [2] was 120 nM and the Ki [3] was 360 nM.

Compound `COCCN1C[C@@H](CN2CN(c3ccc(F)cc3)C3(CCN(Cc4cccc5cccc(C)c45)CC3)C2=O)OC1=O` [Compound 5, 1-(4-Fluoro-phenyl)-3-(R)-[3-(2-methoxy-ethyl)-2-oxo-oxazolidin-5-ylmethyl]-8-(8-methyl-naphthalen-1-ylmethyl)-1,3,8-triaza-spiro[4.5]decan-4-one] has a Ki [1] of over 5000 nM, a Ki [2] of 580 nM and a Ki [3] of 180 nM.
